Experiments:
[1] = Liquid; for mass density: 101 kPa, Vibrating tube method; for vapor or sublimation pressure: Ebulliometric method (Recirculating still)
[2] = refractive index (Na D-line) (dimensionless); settings: 101.33 kPa, Liquid, Standard Abbe refractometry
[3] = xn = mol fraction of the nth substance listed; settings: 101 kPa, Liquid, Vibrating tube method
[4] = excess molar enthalpy (molar enthalpy of mixing); xn = mol fraction of the nth substance listed; settings: 291.15 K, 101 kPa, Liquid, Calvet calorimetry

CCCCCCCCCC [decane]
Settings | mass density, 291.15 K [kg/m3] | mass density, 298.15 K [kg/m3] | mass density, 318.15 K [kg/m3] | mass density, 328.15 K [kg/m3] | refractive index, 298.15 K | refractive index, 318.15 K | vapor or sublimation pressure, 447.27 K [kPa]
[1] | 731.2 | 726.2 | 710.9 | 703.3 | – | – | 101.32
[2] | – | – | – | – | 1.4096 | 1.4008 | –

CCCCCCCCCC [decane] + CCCOC(C)=O
[3], x2 = 0
Settings | mass density [kg/m3]
291.15 K | 731.2
298.15 K | 726.2
318.15 K | 710.9
328.15 K | 703.3

CCCCCCC [heptane] + CCCOC(C)=O
[3], x2 = 0
Settings | mass density [kg/m3]
291.15 K | 685.3
298.15 K | 679.5
318.15 K | 662.1
328.15 K | 653.7

CCCCC [pentane] + CCCOC(C)=O
[4]
Settings | excess molar enthalpy [kcal/mol]
x2 = 0.0667 | 0.0535
x2 = 0.1334 | 0.097
x2 = 0.2047 | 0.147
x2 = 0.2753 | 0.186
x2 = 0.3414 | 0.2185
x2 = 0.4028 | 0.2361
x2 = 0.461 | 0.2452
x2 = 0.5088 | 0.2464
x2 = 0.5257 | 0.245
x2 = 0.5824 | 0.2326
x2 = 0.6434 | 0.2141
x2 = 0.7089 | 0.188
x2 = 0.7812 | 0.152
x2 = 0.8537 | 0.107
x2 = 0.9242 | 0.0595

mass density [kg/m3], [3]
Settings | 291.15 K | 298.15 K
x2 = 0 | 628.2 | 621.4
x2 = 0.0101 | – | 623.7
x2 = 0.0121 | 631.2 | –
x2 = 0.0346 | – | 629.8
x2 = 0.0427 | 638.8 | –
x2 = 0.0754 | – | 640
x2 = 0.078 | 647.7 | –
x2 = 0.1377 | – | 655.9
x2 = 0.1417 | 664 | –
x2 = 0.1977 | – | 671.4
x2 = 0.2048 | 680.3 | –
x2 = 0.2734 | 698.2 | –
x2 = 0.283 | – | 693.6
x2 = 0.3338 | 714.1 | –
x2 = 0.3439 | – | 709.7
x2 = 0.3934 | 729.8 | –
x2 = 0.4072 | – | 726.4
x2 = 0.4636 | 748.4 | –
x2 = 0.4881 | – | 747.7
x2 = 0.5218 | – | 756.5
x2 = 0.5224 | 763.9 | –
x2 = 0.5876 | 781.1 | –
x2 = 0.5968 | – | 776.4
x2 = 0.6565 | 799.3 | 792.1
x2 = 0.7085 | – | 805.9
x2 = 0.7136 | 814.4 | –
x2 = 0.7697 | 829.2 | –
x2 = 0.8277 | 844.6 | –
x2 = 0.8437 | – | 841.6
x2 = 0.8911 | 861.3 | –
x2 = 0.9205 | – | 861.8
x2 = 0.923 | 869.7 | –

CCCCCCCCC [nonane]
Settings | mass density, 291.15 K [kg/m3] | mass density, 298.15 K [kg/m3] | mass density, 318.15 K [kg/m3] | mass density, 328.15 K [kg/m3] | refractive index, 298.15 K | refractive index, 318.15 K | vapor or sublimation pressure, 423.94 K [kPa]
[1] | 719.2 | 713.9 | 698.1 | 690.2 | – | – | 101.32
[2] | – | – | – | – | 1.4031 | 1.3938 | –

CCCCCC [hexane] + CCCOC(C)=O
[3], x2 = 0
Settings | mass density [kg/m3]
291.15 K | 661.2
298.15 K | 654.8
318.15 K | 636.7
328.15 K | 627.2

CCCCCCCC [octane]
Settings | mass density, 291.15 K [kg/m3] | mass density, 298.15 K [kg/m3] | mass density, 318.15 K [kg/m3] | mass density, 328.15 K [kg/m3] | refractive index, 298.15 K | refractive index, 318.15 K | vapor or sublimation pressure, 398.85 K [kPa]
[1] | 704.1 | 698.6 | 682.2 | 674.1 | – | – | 101.32
[2] | – | – | – | – | 1.3952 | 1.3855 | –

CCCCCC [hexane]
Settings | mass density, 291.15 K [kg/m3] | mass density, 298.15 K [kg/m3] | mass density, 318.15 K [kg/m3] | mass density, 328.15 K [kg/m3] | refractive index, 298.15 K | refractive index, 318.15 K | vapor or sublimation pressure, 341.89 K [kPa]
[1] | 661.2 | 654.8 | 636.7 | 627.2 | – | – | 101.32
[2] | – | – | – | – | 1.3723 | 1.3615 | –
